Measured values published in patent US20120283428A1, “HYALURONIC ACID DERIVATIVE EFFECTIVE AGAINST ATOPIC DERMATITIS, AND METHOD FOR MANUFACTURING SAME” (CELLINBIO CO.,LTD, priority 2009, published 2012).

Test system: PGE2
Experiment: PGE2 level in LPS-stimulated macrophage cell-line, ELISA
Format: cell-based, mouse
Settings: RAW 264.7, 500 ng/ml LPS, 10 mg/ml test substance, 24 hours, compared to control (FIG. 2)
Experimental: As a positive control, ascorbic acid (AA) and a mixture of hyaluronic acid and ascorbic acid (HA+AA) was used in this Example. PGE2 is a substance causing inflammation, edema, pain and fever in body. Microphage cell-line (RAW 264.7) was inoculated into medium containing DMEM (Dulbecco's modified Eagle's medium)/FBS (Fetal Bovine Serum) under a condition of […] of CO2 concentration at a temperature of 37° C. in order to culture the cell-line. […] The complete medium was cultured additionally for 24 hours, and then PGE2 level in supernatant of medium was assayed by ELISA (enzyme-linked Immunosorbent Assay) analysis. […] Each well was washed, and then substrate solution was added.

O=C1O[C@H]([C@@H](O)CO)C(O)=C1O [AA, ascorbic acid]
PGE2 level in supernatant of medium: decrease PGE2 significantly
